{"source": "patent US12145959B2", "about": "“Bile acid recycling inhibitors for treatment of hypercholemia and cholestatic liver disease” (SHIRE HUMAN GENETIC THERAPIES, INC., priority 2011, dated 2024)", "key": {"[1]": {"system": "Male Zucker diabetic fatty rats (ZDF/GmiCrl-fa/fa)", "experiment": "ZDF rat study of 264W94: fecal bile acid excretion, fecal NEFA and plasma bile acids", "assay_type": "in vivo", "conditions": "2 weeks", "protocol": "Animal preparation. Male Zucker diabetic fatty rats (ZDF/GmiCrl-fa/fa) were purchased from Charles River (Raleigh, NC) and housed under controlled conditions (12:12 light-dark cycle, 24° C. and 50% relative humidity) with free access to rodent food (Purina 5008, Harlan Teklad, Indianapolis, IN). All rats arrived at seven weeks of age (+3 days). After a one-week acclimation period, rats were anesthetized with isoflurane (Abbott Laboratories, IL) and tail-vein blood samples were collected at 9 am without fasting. Blood glucose levels were measured using a glucometer (Bayer, Leverkusen, Germany). In order to ensure balanced treatment groups, ZDF rats were assigned to six treatment groups based upon baseline glucose: vehicle (0.5% HPMC, 0.1% Tween80) and five doses of 264W94 (0.001, 0.01, 0.1, 1, 10 mg/kg). All treatments were given via oral gavage twice a day and animals were followed for two weeks with blood samples collected from tail vein at the end of each week at 9 am without fasting. Fecal samples were collected for 24 hours during the second week of treatment.\nMeasurement of clinical chemistry parameters. Non-esterified fatty acids (NEFA), bile acids, and bile acids in fecal extraction were measured using the Olympus AU640 clinical chemistry analyzer (Beckman Coulter, Irving, TX)."}, "[2]": {"system": "children and adolescents under the age of eighteen", "experiment": "Human study of fasting and post-prandial peak serum bile acids in children and adolescents", "assay_type": "in vivo", "protocol": "FIG. 5. Fasting serum bile acid levels and morning post-prandial peak in children under the age of 12. LUM001 was administered once-a-day (QD) in the morning for fourteen days.\nHuman Study to Test Efficacy of ASBTI in Lowering Serum Bile Acids\n(§1) LUM001 has been administered to forty patients under the age of 18 years old. […] The drug was administered once-a-day (QD) in the morning for fourteen days. […] These doses are similar to those using to treat patients with cholestatic diseases.\nThe efficacy of LUM001 was determined by measuring total serum bile acids after eight days of dosing in children and adolescents under the age of eighteen. Thirty minutes before the next drug administration, at approximately 8 am in the morning, serum bile acid levels were measured. The child had refrained from food for 12 hours prior to this sample thus providing a fasted level of serum bile acid. After breakfast, serum bile acids were measured for up to the next 4 hours (8 am to noon) and the peak serum bile acid concentration noted."}, "[3]": {"system": "Male beagle dogs", "experiment": "Time to onset of activity of a single oral dose on postprandial total serum bile acids in beagle dogs", "assay_type": "in vivo, dog", "protocol": "Animal Study on the Duration of Action and Time to Onset of ASBTI Activity of a Single Oral Dose of LUM001 on Postprandial Total Serum Bile Acids in Beagle Dogs\nTest compound: LUM001—Form I\n(§2) Dosage preparation and administration: LUM001 was dissolved in water at concentrations that required the administration of 0.2 ml/kg of solution. Solutions were placed into gelatin capsules, Torpac Inc., size 13 Batch 594, East Hanover NJ, and administered orally.\n(§3) Dogs: Male beagle dogs were obtained from Covance Research Products, Cumberland VA or Marshall Farms USA, Inc., North Rose NY A total of 20 dogs, 1 to 5 years old, 6.8 to 15.6 kg body weight, were used in these experiments. The dogs were conditioned to a 12 hour light/dark cycle and maintained on a feeding restriction of 1 hour per day access to food (Richman Standard Certified Canine Diet #5007, PMI Nutrition, Inc., St Louis MO) from 7 to 8 AM. They were trained to eat a special meal promptly within 20 minutes when presented (1 can. 397 g, Evanger's 100% Beef for Dogs, Evanger's Dog and Cat Food Co., Inc., Wheeling IL, mixed with 50 g of sharp cheddar cheese.).\n(§4) Serum Total Bile Acid (SBA) Measurement: SBA was measured by an enzymatic assay. SBA values are expressed as μg of total bile acids/ml of serum.\nTo estimate the details of this plateau, 6 dogs were given a test meal and blood samples for SBA measurement were collected at −30, 0, 30, 60, 65, 70, 80, 90, 120, 180, 240, 360, 480, 720, 1410 and 1440 minutes from the time of feeding. Any remaining food was removed 20 min after it was first presented to the dogs. To establish a method for extending the elevated plateau of SBA, 6 dogs were given the meal at 0 hr and an additional ½ size meal again 4 hr after their first meal. Blood samples were taken at 0, 1, 2, 3, 4, 4.5, 6, 7 and 8 hr. The curves for SBA level vs time obtained in these experiments were used as references for determining blood sampling times in experiments with LUM001. […]"}, "[4]": {"experiment": "Systemic exposure (pharmacokinetics) of LUM001 in patients under 18, study NB-00-02-014", "assay_type": "in vivo, human", "conditions": "QD in the morning, measured on day eight", "protocol": "as §1"}, "[5]": {"system": "healthy adult subjects", "experiment": "Phase 1 ascending multiple oral dose study: serum and fecal bile acid analysis", "assay_type": "in vivo, human", "conditions": "healthy adults; ascending multiple oral doses qAM, 28 days", "protocol": "FIG. 3. Serum bile acid (SBA) analysis of healthy subjects after administration of ascending multiple oral doses of LUM001 a randomized, double-blind, placebo-controlled study. Shown in the graphs are data from the 0.5 (n=16), 1.0 (n=8), 2.5 (n=8), 5.0 (n=8) and 10 (n=8) mg dosing groups. On Day 1, blood was drawn for baseline SBA at approximately 30 minutes before and after breakfast and 30 minutes after lunch and dinner. Samples were obtained on day 14.\nFIG. 4. Fecal bile acid analysis of healthy subjects after administration of ascending multiple oral doses of LUM001 a randomized, double-blind, placebo-controlled study. […]\nSBA were analyzed as part of the routine clinical analysis of the serum samples collected at each time point.\nFecal Bile Acid Analysis: Fecal samples were collected for all panels except the dose-titration panel, 2.5 (2) and 5 mg (2), on Days 9 through 14 and 23 through 28 (data shown in FIG. 4). Twenty-four hour FBA excretions were quantified by Pharmacia for Days 9 through 14 and 23 through 28. […] The weight of each 24-hour fecal collection was recorded on the CRFs. […]\nAn aliquot for each 24-hour fecal sample collected on Days 23 through 28 was combined, homogenized, and analyzed for bile acid species concentrations by ANAPHARM. The fecal bile acid species evaluated include chenodeoxycholic acid, cholic acid, deoxycholic acid, and lithocholic acid."}, "[6]": {"system": "Male beagle dogs", "experiment": "Duration of action on dog serum bile acids, Method 2: one meal and extended interval between dosing and feeding", "assay_type": "in vivo", "conditions": "administered 2 hours prior to feeding", "protocol": "as §2, §3, §4\nMethod 2: One Meal and Extended Interval Between Dosing and Feeding: Alternatively, 6 dogs were dosed with water or LUM001, at 0.05 mg/kg, p.o. at 1.5 hours prior to being fed, or 0.05, or 0.2 mg/kg, at 2 hours prior to feeding. This moved the elevated SBA plateau out in time from the dose point. […]"}, "[7]": {"system": "Male beagle dogs", "conditions": "previous experiments (2); cited from earlier work"}, "[8]": {"system": "Male ZDF rats", "experiment": "Plasma bile acid levels of ZDF rats after ascending doses of SC-435 and LUM002", "assay_type": "in vivo, rat", "conditions": "ZDF rats n=4; oral gavage twice a day 2 weeks; all doses (SC-435 1, 10, 30 mg/kg; LUM002 0.3, 1, 3, 10, 30 mg/kg); end of second week", "protocol": "(§5) FIG. 2. Plasma bile acid levels of ZDF rats after administration of ascending doses of SC-435 and LUM002. Male ZDF rats (n=4) were administered vehicle, SC-435 (1, 10 or 30 mg/kg) or LUM002 (0.3, 1, 3, 10 or 30 mg/kg) by oral gavage twice a day for 2 weeks. Plasma bile acid levels were determined at the end of the second week. Data are expressed as mean values±SEM.\nas §5, with “Plasma” for “FIG. 2. Plasma”, “week. […]” for “week.”"}, "[9]": {"conditions": "FIG. 5 legend: children under the age of 12, QD for fourteen days"}, "[10]": {"conditions": "LUM001 treated patients under eighteen, after eight days of dosing"}, "[11]": {"conditions": "patients under eighteen, after eight days of dosing"}}, "data": [{"smiles": "CCCC[C@]1(CC)CS(=O)(=O)c2cc(OC)c(OC)cc2[C@@H](c2ccccc2)N1", "note": "[Compound 264W94]", "values": [{"measurement": "Fecal bile acid concentrations elevated, compared to vehicle treated rats", "setting": "[1]; 0.001-10 mg/kg oral gavage twice a day, 24 h feces in second week, maximum elevation", "value": "up to 6.5 fold"}, {"measurement": "Bile acids in the feces", "setting": "[1]; oral administration twice a day", "value": "dose-dependently increased"}]}, {"smiles": "CCCCC1(CCCC)CS(=O)(=O)c2ccc(N(C)C)cc2[C@@H](c2ccc(OCc3ccc(C[N+]45CCN(CC4)CC5)cc3)cc2)[C@H]1O", "note": "[LUM001]", "values": [{"measurement": "Decrease in average fasting serum bile acid level versus placebo patients", "setting": "[2]; [9]", "value": 24, "unit": "%"}, {"measurement": "Decrease in average post-prandial peak serum bile acid level versus placebo patients", "setting": "[2]; [9]", "value": 23, "unit": "%"}, {"measurement": "Average fasting serum bile acid level", "setting": "[2]; [10]", "value": 6.5, "unit": "µmol/L"}, {"measurement": "Average post-prandial peak serum bile acid level", "setting": "[2]; [10]", "value": 9.2, "unit": "µmol/L"}, {"measurement": "Decrease in average fasting serum bile acid level versus placebo patients", "setting": "[2]; [11]", "value": 24, "unit": "%"}, {"measurement": "Decrease in average post-prandial peak serum bile acid level versus placebo patients", "setting": "[2]; [11]", "value": 23, "unit": "%"}, {"measurement": "Effect of increasing the dose on onset time to significant SBA lowering", "setting": "[3]; 1 mg/kg versus 0.2 mg/kg", "value": "did not shorten the onset time"}, {"measurement": "ED50", "setting": "[3]; Canis lupus familiaris, oral, read-out: ED50 dose in the dog SBA model", "value": 0.2, "unit": "mg/kg"}, {"measurement": "Threshold dose for significant lowering of SBA levels", "setting": "[3]; oral, 1 hour after feeding", "value": 0.05, "unit": "mg/kg"}, {"measurement": "Systemic absorption (levels of systemic exposure)", "setting": "[4]", "value": "minimally absorbed"}, {"measurement": "Fecal bile acids", "setting": "[5]", "value": "significant increase"}, {"measurement": "Serum bile acids", "setting": "[5]", "value": "significant reduction"}, {"measurement": "Dose required to produce a significant effect on SBA", "setting": "[6]", "value": 0.2, "unit": "mg/kg"}, {"measurement": "Time that the compound remains active", "setting": "[7]", "value": "more than 4.5 hours"}]}, {"smiles": "CCCC[C@]1(CC)CS(=O)(=O)c2ccc(N(C)C)cc2[C@@H](c2cccc(NC(=O)N[C@@H]3O[C@H](COS(=O)(=O)[O-])[C@@H](O)[C@H](OCc4ccccc4)[C@H]3O)c2)[C@H]1O.[K+]", "note": "[LUM002]", "values": [{"measurement": "Plasma bile acid levels", "setting": "[8]", "value": "decreased"}]}, {"smiles": "CCCCC1(CCCC)CS(=O)(=O)c2ccc(N(C)C)cc2[C@@H](c2ccc(OCCCC[N+]34CCN(CC3)CC4)cc2)[C@H]1O.CS(=O)(=O)[O-]", "note": "[SC-435, 1-[4-[4-[(4R,5R)-3,3-dibutyl-7-(dimethylamino)-2,3,4,5-tetrahydro-4-hydroxy-1,1-dioxido-1-benzothiepin-5-yl]phenoxy]butyl]4-aza-1-azoniabicyclo[2.2.2]octane methanesulfonate salt, reference compound]", "values": [{"measurement": "Plasma bile acid levels", "setting": "[8]", "value": "decreased"}]}]}
